Source: patent publication US6423689B1, “Peptidyl calcium channel blockers” (Warner-Lambert Company, priority 1997, dated 2002)

Biological target: T1, N-type Ca2+ channels in IMR-32 cells (Homo sapiens, UniProt Q00975)
T1 construct: host or cells: IMR-32 cells, differentiated with dibutyryl cAMP and bromodeoxyuridine
Experiment: Inhibition of N-type calcium flux in IMR-32 cells (Indo-1 fluorescence, nitrendipine present)
Assay type: cell-based
Conditions: 1 μM
Protocol: Measurement of N-type Ca^2+ Channel Blocking Potencies of Compounds in IMR-32 Cells Using the Fluorescent Ca^2+ Indicator Indo-1
IMR-32 cells are a human tumoral cell line of neural origin. […] Calcium flux into these cells may be induced by stimulation with elevated potassium concentrations. The L-channel component of calcium flux may be blocked by adding 5 μM nitrendipine. The remaining component of calcium entry into the IMR-32 cells is due to calcium flux through N-type calcium channels. Intracellular calcium concentrations are measured using the fluorescent calcium indicator Indo 1. The effect of drug concentration on calcium uptake is studied.
The IMR-32 cell line was obtained from the American Type Culture Collection (Rockville, Md.). Cells were grown in Eagle's Minimum Essential Medium with Eagle's salts supplemented with 10% fetal bovine serum, 2 mM L-Gln and antibiotic/antimycotic mixture (Gibco). […] After 7 to 13 days of differentiation, cells were detached using 0.5 mM EDTA and loaded with 5 μM Indo-1 acetoxymethyl ester (Molecular Probes, Eugene, OR) at […] for 45 minutes. Loaded cells were washed twice, resuspended (˜10^7 cells/mL) in assay buffer (10 mM HEPES/Tris pH 7.4 in Hank's Balanced Salt Solution without bicarbonate or phenol red containing 0.5% bovine serum albumin) and kept on ice until use. Fluorescence measurements were carried out in a Photon Technology International (PTI, South Brunswick, N.J.) Model RF-F3004 spectrofluorometer with dual emission monochromators using excitation at 350 nm and emission at 400 and 490 nm. The instrument was equipped with a thermostated cuvette holder with stirring capabilities as well as with a computer-controlled pump which allowed for reagent addition during measurement. Instrument control and data collection was done by PTI's OSCAR software running on an IBM compatible computer. […] Samples were incubated for 10 minutes at 30° C. and then aliquoted into three 10×10 mm disposable acrylic cuvettes. Emission signals at 400 and 490 nm were acquired from each cuvette at 30° C. for 50 seconds. At 20 seconds after the start of reading, cells were depolarized by the addition of 160 μL of stimulation solution (1M KCl, 68 mM CaCl2) to the cuvette via the computer-controlled pump. Ratio of dual emission signals (400 nm/490 nm), which is proportional to intracellular Ca^2+ concentration, was plotted against time, and the difference between maximal response after stimulation and basal value (before stimulation) was determined. Values obtained in this way were plotted as a function of drug concentration. IC50 values of test compounds were calculated by fitting a four-parameter logistic function to the data using the least squares method.

T1 sequence (Q00975 whole entry): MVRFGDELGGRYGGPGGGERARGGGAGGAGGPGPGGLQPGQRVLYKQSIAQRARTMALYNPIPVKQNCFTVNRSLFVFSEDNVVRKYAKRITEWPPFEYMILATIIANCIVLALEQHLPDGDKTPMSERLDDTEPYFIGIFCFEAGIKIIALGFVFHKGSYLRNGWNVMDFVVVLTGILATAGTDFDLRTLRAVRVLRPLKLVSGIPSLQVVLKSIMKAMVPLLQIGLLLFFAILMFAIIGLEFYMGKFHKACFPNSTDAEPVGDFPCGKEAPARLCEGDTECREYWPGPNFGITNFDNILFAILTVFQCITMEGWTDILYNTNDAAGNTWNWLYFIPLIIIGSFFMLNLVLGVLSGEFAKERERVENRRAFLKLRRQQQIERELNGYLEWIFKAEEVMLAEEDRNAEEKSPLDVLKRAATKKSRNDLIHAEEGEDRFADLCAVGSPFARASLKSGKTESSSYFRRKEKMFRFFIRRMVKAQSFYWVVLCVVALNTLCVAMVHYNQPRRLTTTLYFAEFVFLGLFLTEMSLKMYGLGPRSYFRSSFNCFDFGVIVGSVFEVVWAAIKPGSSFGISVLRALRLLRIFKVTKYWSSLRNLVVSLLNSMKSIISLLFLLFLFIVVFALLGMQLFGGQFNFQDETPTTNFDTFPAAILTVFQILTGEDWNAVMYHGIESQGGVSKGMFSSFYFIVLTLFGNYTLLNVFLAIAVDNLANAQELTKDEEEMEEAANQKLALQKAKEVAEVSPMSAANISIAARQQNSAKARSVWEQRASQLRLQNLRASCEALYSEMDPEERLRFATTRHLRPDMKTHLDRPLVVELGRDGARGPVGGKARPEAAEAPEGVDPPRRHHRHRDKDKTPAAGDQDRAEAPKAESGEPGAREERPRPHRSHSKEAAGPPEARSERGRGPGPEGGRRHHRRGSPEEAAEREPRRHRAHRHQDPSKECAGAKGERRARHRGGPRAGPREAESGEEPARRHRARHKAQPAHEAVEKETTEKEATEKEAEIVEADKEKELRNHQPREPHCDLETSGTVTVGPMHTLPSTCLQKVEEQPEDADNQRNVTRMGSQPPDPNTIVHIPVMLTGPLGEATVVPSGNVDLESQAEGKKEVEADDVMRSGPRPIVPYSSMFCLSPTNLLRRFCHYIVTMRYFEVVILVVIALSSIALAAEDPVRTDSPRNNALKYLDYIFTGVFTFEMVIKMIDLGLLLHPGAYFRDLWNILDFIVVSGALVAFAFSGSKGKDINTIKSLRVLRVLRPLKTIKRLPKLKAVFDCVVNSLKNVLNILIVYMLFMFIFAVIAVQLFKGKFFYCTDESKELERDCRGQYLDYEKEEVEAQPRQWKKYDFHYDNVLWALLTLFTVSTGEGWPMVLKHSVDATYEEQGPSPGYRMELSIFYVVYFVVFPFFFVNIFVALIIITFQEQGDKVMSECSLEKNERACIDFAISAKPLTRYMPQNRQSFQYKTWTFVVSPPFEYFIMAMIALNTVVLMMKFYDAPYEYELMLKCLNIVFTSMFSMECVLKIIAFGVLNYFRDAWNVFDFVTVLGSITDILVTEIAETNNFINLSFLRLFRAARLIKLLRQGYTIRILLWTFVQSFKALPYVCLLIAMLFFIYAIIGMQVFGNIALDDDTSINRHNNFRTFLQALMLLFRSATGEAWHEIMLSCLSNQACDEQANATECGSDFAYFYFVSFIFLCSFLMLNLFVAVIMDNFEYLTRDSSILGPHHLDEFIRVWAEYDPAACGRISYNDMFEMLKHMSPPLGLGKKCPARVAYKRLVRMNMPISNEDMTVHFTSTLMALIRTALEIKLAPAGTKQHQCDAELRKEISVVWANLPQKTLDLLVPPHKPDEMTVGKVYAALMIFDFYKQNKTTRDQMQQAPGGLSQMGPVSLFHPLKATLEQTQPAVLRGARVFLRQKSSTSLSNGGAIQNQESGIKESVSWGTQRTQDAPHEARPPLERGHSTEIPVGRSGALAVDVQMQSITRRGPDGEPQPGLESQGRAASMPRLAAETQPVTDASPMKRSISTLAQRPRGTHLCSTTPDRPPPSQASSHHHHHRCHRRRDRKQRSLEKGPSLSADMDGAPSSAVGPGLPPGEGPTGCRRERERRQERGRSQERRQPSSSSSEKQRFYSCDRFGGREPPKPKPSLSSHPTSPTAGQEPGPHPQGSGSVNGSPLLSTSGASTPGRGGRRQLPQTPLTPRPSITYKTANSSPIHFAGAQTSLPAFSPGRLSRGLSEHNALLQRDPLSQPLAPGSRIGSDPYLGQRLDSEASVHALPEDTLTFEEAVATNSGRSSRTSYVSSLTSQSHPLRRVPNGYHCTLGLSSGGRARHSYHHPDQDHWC
T1 sequence (P54289 25-956 partner limits assumed): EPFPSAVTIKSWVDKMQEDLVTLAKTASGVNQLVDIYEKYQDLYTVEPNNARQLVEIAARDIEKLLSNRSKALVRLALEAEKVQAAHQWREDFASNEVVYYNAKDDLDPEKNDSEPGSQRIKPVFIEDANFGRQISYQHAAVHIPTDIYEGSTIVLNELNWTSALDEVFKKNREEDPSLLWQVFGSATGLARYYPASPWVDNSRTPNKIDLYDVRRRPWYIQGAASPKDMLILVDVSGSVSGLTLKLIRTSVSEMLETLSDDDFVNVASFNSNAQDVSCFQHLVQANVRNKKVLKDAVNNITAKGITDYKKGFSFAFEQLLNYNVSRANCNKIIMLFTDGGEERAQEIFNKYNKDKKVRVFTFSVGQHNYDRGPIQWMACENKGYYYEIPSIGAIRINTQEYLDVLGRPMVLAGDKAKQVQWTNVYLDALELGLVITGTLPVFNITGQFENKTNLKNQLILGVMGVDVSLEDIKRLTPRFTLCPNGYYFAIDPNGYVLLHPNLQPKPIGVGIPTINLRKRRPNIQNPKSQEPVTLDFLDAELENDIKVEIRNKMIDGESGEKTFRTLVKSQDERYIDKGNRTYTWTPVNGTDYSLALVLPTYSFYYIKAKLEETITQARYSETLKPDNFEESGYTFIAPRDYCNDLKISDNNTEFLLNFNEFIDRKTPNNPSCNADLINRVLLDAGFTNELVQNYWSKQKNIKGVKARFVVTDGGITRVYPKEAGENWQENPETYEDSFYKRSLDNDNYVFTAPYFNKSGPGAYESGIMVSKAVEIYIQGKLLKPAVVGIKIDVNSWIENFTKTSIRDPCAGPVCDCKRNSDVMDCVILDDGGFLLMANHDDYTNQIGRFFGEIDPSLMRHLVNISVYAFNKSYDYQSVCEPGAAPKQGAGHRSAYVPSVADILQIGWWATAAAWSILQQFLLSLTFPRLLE
T1 sequence (P54289 957-1103 partner limits assumed): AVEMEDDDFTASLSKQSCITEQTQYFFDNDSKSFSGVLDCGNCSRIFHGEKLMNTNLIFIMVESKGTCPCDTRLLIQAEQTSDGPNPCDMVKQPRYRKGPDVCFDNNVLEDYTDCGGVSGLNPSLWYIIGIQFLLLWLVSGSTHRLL
T1 sequence (P54284 whole entry partner): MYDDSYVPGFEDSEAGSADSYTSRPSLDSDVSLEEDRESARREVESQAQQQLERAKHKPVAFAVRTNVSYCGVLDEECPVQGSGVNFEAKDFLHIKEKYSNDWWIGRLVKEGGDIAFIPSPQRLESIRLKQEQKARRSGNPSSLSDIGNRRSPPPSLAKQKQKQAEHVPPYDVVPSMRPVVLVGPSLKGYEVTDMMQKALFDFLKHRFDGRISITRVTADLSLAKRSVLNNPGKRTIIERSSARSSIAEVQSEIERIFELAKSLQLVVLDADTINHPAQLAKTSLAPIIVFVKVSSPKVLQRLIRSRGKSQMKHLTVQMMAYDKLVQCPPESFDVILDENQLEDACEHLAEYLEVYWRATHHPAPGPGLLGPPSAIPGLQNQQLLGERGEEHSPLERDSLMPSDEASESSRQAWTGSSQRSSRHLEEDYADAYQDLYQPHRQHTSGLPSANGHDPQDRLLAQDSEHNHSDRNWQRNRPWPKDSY

Compared with COc1ccccc1NC(=O)N[C@@H](CC(C)C)C(=O)N[C@@H](Cc1ccc(OCc2ccccc2)cc1)C(=O)OC(C)(C)C (relative stereo) [Example 71, [S-(R*,R*)]-3-(4-Benzyloxy-phenyl)-2-{2-[3-(2-methoxy-phenyl)-ureido]-4-methyl-pentanoylamino}-propionic acid tert-butyl ester], CC(C)C[C@H](NC(=O)Nc1ccccc1Cl)C(=O)N[C@@H](Cc1ccc(OCc2ccccc2)cc1)C(=O)OC(C)(C)C (relative stereo) [Example 73, [S-(R*,R*)]-3-(4-Benzyloxy-phenyl)-2-{2-[3-(2-chloro-phenyl)-ureido]-4-methylpentanoylamino}-propionic acid tert-butyl ester] is higher in “Inhibition of Calcium Flux in IMR-32 Cells % Inhibition at 1 μM” value: 55% for the first, 60% for the second.

Compared with Cc1cc(C)cc(NC(=O)N[C@@H](CC(C)C)C(=O)N[C@@H](Cc2ccc(OCc3ccccc3)cc2)C(=O)OC(C)(C)C)c1 (relative stereo) [Example 72, [S-(R*,R*)]-3-(4-Benzyloxy-phenyl)-2-{2-[3-(3,5-dimethyl-phenyl)-ureido]-4-methyl-pentanoylamino}-propionic acid tert-butyl ester], CC(C)C[C@H](NC(=O)Nc1cccc(Cl)c1)C(=O)N[C@@H](Cc1ccc(OCc2ccccc2)cc1)C(=O)OC(C)(C)C (relative stereo) [Example 74, [S-(R*,R*)]-3-(4-Benzyloxy-phenyl)-2-{2-[3-(3-chloro-phenyl)-ureido]-4-methyl-pentanoylamino}-propionic acid tert-butyl ester] is higher in “Inhibition of Calcium Flux in IMR-32 Cells % Inhibition at 1 μM” value: 31% for the first, 45% for the second.

Going from CC(C)C[C@H](NC(=O)NC1CC1c1ccccc1)C(=O)N[C@@H](Cc1ccc(OCc2ccccc2)cc1)C(=O)OC(C)(C)C (relative stereo) [Example 75, [S-(R*,R*)]-3-(4-Benzyloxy-phenyl)-2-{4-methyl-2-[3-(2-phenyl-cyclopropyl)-ureido]-pentanoylamino}-propionic acid tert-butyl ester] to CC(C)C[C@H](NC(=O)Nc1cccc2ccccc12)C(=O)N[C@@H](Cc1ccc(OCc2ccccc2)cc1)C(=O)OC(C)(C)C (relative stereo) [Example 79, [S-(R*,R*)]-3-(4-Benzyloxy-phenyl)-2-[4-methyl-2-(3-naphthalen-1-yl-ureido)-pentanoylamino]-propionic acid tert-butyl ester], the “Inhibition of Calcium Flux in IMR-32 Cells % Inhibition at 1 μM” value falls from 28% to 23%.

Compared with CC(C)C[C@H](NC(=O)Nc1cccc(C(F)(F)F)c1)C(=O)N[C@@H](Cc1ccc(OCc2ccccc2)cc1)C(=O)OC(C)(C)C (relative stereo) [Example 76, [S-(R*,R*)]-3-(4-Benzyloxy-phenyl)-2-{4-methyl-2-[3-(3-trifluoromethyl-phenyl)-ureido]-pentanoylamino}-propionic acid tert-butyl ester], CC(C)C[C@H](NC(=O)Nc1ccc(Cl)c(C(F)(F)F)c1)C(=O)N[C@@H](Cc1ccc(OCc2ccccc2)cc1)C(=O)OC(C)(C)C (relative stereo) [Example 78, [S-(R*,R*)]-3-(4-Benzyloxy-phenyl)-2-{2-[3-(4-chloro-3-trifluoromethyl-phenyl)-ureido]-4-methyl-pentanoylamino}-propionic acid tert-butyl ester] is lower in “Inhibition of Calcium Flux in IMR-32 Cells % Inhibition at 1 μM” value: 27% for the first, 24% for the second.

For CCOC(=O)c1ccc(NC(=O)N[C@@H](CC(C)C)C(=O)N[C@@H](Cc2ccc(OCc3ccccc3)cc2)C(=O)OC(C)(C)C)cc1 (relative stereo) [Example 77, [S-(R*,R*)]-4-(3-{1-[2-(4-Benzyloxy-phenyl)-1tert-butoxycarbonyl-ethylcarbamoyl]-3-methylbutyl}-ureido)-benzoic acid ethyl ester], the “Inhibition of Calcium Flux in IMR-32 Cells % Inhibition at 1 μM” value was 22%.
